Several values for one entry are separate records, joined by “and”; a condition that tells them apart may be missing. Equal entries are not always repeated.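 A five-concentration, 48-hour dose response in 96-well plates underlies each endpoint, interpolated linearly between surrounding concentrations. At the GI50, growth is halved.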 Activity calls are given as the source filed them. Rule as the data show it: active = GI50 up to about 1.1 µM and inactive = higher.
Columns and labels:
Experiment in all cases: NCI anticancer screen, dose series, 48 h
[1] = system: Malme-3M
[2] = system: SR
[3] = system: SN12C
[4] = system: HCT-116
[5] = system: NCI-H23
[6] = system: OVCAR-8
[7] = system: A498
[8] = system: OVCAR-3
[9] = system: UACC-257
[10] = system: MOLT-4
[11] = system: HCC 2998
[12] = system: U-251
[13] = system: SK-MEL-5
[14] = system: SK-MEL-2
[15] = system: NCI/ADR-RES
[16] = system: T47D
[17] = system: UO-31
[18] = system: TK-10
[19] = system: NCI-H522
[20] = system: UACC-62
[21] = system: SK-MEL-28
[22] = system: HOP-62
[23] = system: SK-OV-3
[24] = system: CCRF-CEM
[25] = system: CAKI-1
[26] = system: 786-0
[27] = system: HCT-15
[28] = system: LOX IMVI
[29] = system: SF-295
[30] = system: A549
[31] = system: MCF7
[32] = system: SNB-19
[33] = system: IGROV-1
[34] = system: MDA-MB-435
[35] = system: EKVX
[36] = system: ACHN
[37] = system: COLO 205
[38] = system: SF-539
[39] = system: DU-145
[40] = system: NCI-H226
[41] = system: M14
[42] = system: RPMI-8226
[43] = system: MDA-N
[44] = system: K562
[45] = system: OVCAR-4
[46] = system: Hs-578T
[47] = system: NCI-H460
[48] = system: PC-3
[49] = system: OVCAR-5
[50] = system: HL-60
[51] = system: SF-268
[52] = system: RXF 393
[53] = system: KM12
[54] = system: HT-29
[55] = system: SNB-75
[56] = system: SW-620
[57] = system: HOP-92
[58] = system: MDA-MB-231
[59] = system: BT-549

COc1cnc2cc(C(=O)O)c3ccccc3c2c1
GI50 [1]: > 100 µM (inactive) | GI50 [2]: > 100 µM (inactive) | GI50 [3]: > 100 µM (inactive) | GI50 [4]: > 100 µM (inactive) | GI50 [5]: > 100 µM (inactive) | GI50 [6]: > 100 µM (inactive) | GI50 [7]: > 100 µM (inactive) | GI50 [8]: > 100 µM (inactive) | GI50 [9]: > 100 µM (inactive) | GI50 [10]: > 100 µM (inactive) | GI50 [11]: > 100 µM (inactive) | GI50 [12]: > 100 µM (inactive) | GI50 [13]: > 100 µM (inactive) | GI50 [14]: > 100 µM (inactive) | GI50 [15]: > 100 µM (inactive) | GI50 [16]: > 100 µM (inactive) | GI50 [17]: > 100 µM (inactive) | GI50 [18]: > 100 µM (inactive) | GI50 [19]: > 100 µM (inactive) | GI50 [20]: > 100 µM (inactive) | GI50 [21]: > 100 µM (inactive) | GI50 [22]: > 100 µM (inactive) | GI50 [23]: > 100 µM (inactive) | GI50 [24]: > 100 µM (inactive) | GI50 [25]: > 100 µM (inactive) | GI50 [26]: > 100 µM (inactive) | GI50 [27]: > 100 µM | GI50 [28]: > 100 µM (inactive) | GI50 [29]: > 100 µM (inactive) | GI50 [30]: > 100 µM (inactive) | GI50 [31]: > 100 µM (inactive) | GI50 [32]: > 100 µM (inactive) | GI50 [33]: > 100 µM (inactive) | GI50 [34]: > 100 µM (inactive) | GI50 [35]: > 100 µM (inactive) | GI50 [36]: > 100 µM (inactive) | GI50 [37]: > 100 µM (inactive) | GI50 [38]: > 100 µM (inactive) | GI50 [39]: > 100 µM (inactive) | GI50 [40]: > 100 µM (inactive) | GI50 [41]: 92.5 µM (inactive) | GI50 [42]: 28.1 µM (inactive) | GI50 [43]: > 100 µM (inactive) | GI50 [44]: > 100 µM (inactive) | GI50 [45]: > 100 µM (inactive) | GI50 [46]: > 100 µM (inactive) | GI50 [47]: > 100 µM (inactive) | GI50 [48]: > 100 µM (inactive) | GI50 [49]: > 100 µM (inactive) | GI50 [50]: > 100 µM (inactive) | GI50 [51]: > 100 µM (inactive) | GI50 [52]: > 100 µM (inactive) | GI50 [53]: > 100 µM (inactive) | GI50 [54]: > 100 µM (inactive) | GI50 [55]: 58.3 µM (inactive) | GI50 [56]: > 100 µM (inactive) | GI50 [57]: > 100 µM (inactive) | GI50 [58]: > 100 µM (inactive)

N#Cc1c(-c2ccccc2)cc(-c2ccccc2)n(C2OC(CO)C(O)C(O)C2O)c1=S (stereo not drawn)
GI50 [2]: 30.8 µM (inactive) and 30.9 µM (inactive) | GI50 [4]: 37.4 µM (inactive) and 19.7 µM (inactive) | GI50 [5]: 23.4 µM (inactive) and 29 µM (inactive) | GI50 [6]: 39.1 µM (inactive) and 32.7 µM (inactive) | GI50 [7]: 19.7 µM (inactive) | GI50 [12]: 18.8 µM (inactive) | GI50 [13]: 30.4 µM (inactive) and 15.7 µM (inactive) | GI50 [15]: 72.3 µM (inactive) | GI50 [17]: 41.2 µM (inactive) and 34.3 µM (inactive) | GI50 [18]: 70.3 µM (inactive) | GI50 [26]: 55.5 µM (inactive) and 38.5 µM (inactive) | GI50 [28]: 15 µM (inactive) and 26.8 µM (inactive) | GI50 [30]: 32.7 µM (inactive) and 46.1 µM (inactive) | GI50 [31]: 27.5 µM (inactive) and 43.4 µM (inactive) | GI50 [32]: 38 µM (inactive) and 33 µM (inactive) | GI50 [33]: 45.5 µM (inactive) and 31 µM (inactive) | GI50 [34]: 21 µM (inactive) and 25.4 µM (inactive) | GI50 [35]: > 100 µM (inactive) | GI50 [42]: 29.2 µM (inactive) and 21.9 µM (inactive) | GI50 [43]: 45 µM (inactive) and 23.2 µM (inactive) | GI50 [46]: 21.1 µM (inactive) and 31.9 µM (inactive) | GI50 [47]: 42.1 µM (inactive) and 28.6 µM (inactive) | GI50 [48]: 17.1 µM (inactive) and 29.6 µM (inactive) | GI50 [50]: 36.2 µM (inactive) and 38.7 µM (inactive) | GI50 [51]: 34.2 µM (inactive) and 27.4 µM (inactive) | GI50 [52]: 40.3 µM (inactive) | GI50 [59]: 32.1 µM (inactive) and 25.6 µM (inactive) | GI50 [53]: 53.2 µM (inactive) and 48.2 µM (inactive) | GI50 [54]: 23.1 µM (inactive) and 34.4 µM (inactive) | GI50 [55]: 33.2 µM (inactive) and 51.2 µM (inactive) | GI50 [56]: 37.2 µM (inactive) and 23.6 µM (inactive)

Cn1c([C@H](C#N)c2ncccc2[N+](=O)[O-])nc2ccccc21
GI50 [1]: 83.2 µM (inactive) | GI50 [2]: > 100 µM (inactive) | GI50 [4]: > 100 µM (inactive) | GI50 [5]: 59 µM (inactive) | GI50 [6]: 49.3 µM (inactive) | GI50 [7]: > 100 µM (inactive) | GI50 [8]: > 100 µM (inactive) | GI50 [9]: > 100 µM (inactive) | GI50 [10]: > 100 µM (inactive) | GI50 [11]: > 100 µM (inactive) | GI50 [12]: 34.8 µM (inactive) | GI50 [14]: 40.6 µM (inactive) | GI50 [15]: 78.2 µM (inactive) | GI50 [17]: > 100 µM (inactive) | GI50 [18]: > 100 µM (inactive) | GI50 [19]: 14.4 µM (inactive) | GI50 [20]: > 100 µM (inactive) | GI50 [21]: > 100 µM (inactive) | GI50 [22]: 24.5 µM (inactive) | GI50 [23]: 32.8 µM (inactive) | GI50 [24]: 0.632 µM (active) | GI50 [25]: > 100 µM (inactive) | GI50 [26]: 31.8 µM (inactive) | GI50 [27]: > 100 µM | GI50 [28]: > 100 µM (inactive) | GI50 [29]: 28.4 µM (inactive) | GI50 [30]: 83.9 µM (inactive) | GI50 [31]: 21 µM (inactive) | GI50 [32]: 50 µM (inactive) | GI50 [34]: > 100 µM (inactive) | GI50 [35]: 56 µM (inactive) | GI50 [36]: > 100 µM (inactive) | GI50 [38]: 31.1 µM (inactive) | GI50 [40]: > 100 µM (inactive) | GI50 [41]: > 100 µM (inactive) | GI50 [42]: > 100 µM (inactive) | GI50 [43]: > 100 µM (inactive) | GI50 [44]: > 100 µM (inactive) | GI50 [46]: 29.9 µM (inactive) | GI50 [47]: 76.4 µM (inactive) | GI50 [48]: 86.1 µM (inactive) | GI50 [49]: > 100 µM (inactive) | GI50 [50]: > 100 µM (inactive) | GI50 [51]: 36 µM (inactive) | GI50 [52]: 19.5 µM (inactive) | GI50 [59]: > 100 µM (inactive) | GI50 [53]: > 100 µM (inactive) | GI50 [54]: > 100 µM (inactive) | GI50 [55]: 28.2 µM (inactive) | GI50 [56]: > 100 µM (inactive) | GI50 [57]: 89.1 µM (inactive) | GI50 [58]: > 100 µM (inactive)

C[C@H]1[C@H](C)CC[C@]2(C)CC[C@]3(C)C(=C[C@@H](O)[C@@H]4[C@@]5(C)[C@H](O)[C@@H](O)[C@H](O)C(C)(C)[C@@H]5CC[C@]43C)[C@H]12
GI50 [2]: > 100 µM (inactive) | GI50 [3]: > 100 µM (inactive) | GI50 [4]: > 100 µM (inactive) | GI50 [5]: > 100 µM (inactive) | GI50 [6]: > 100 µM (inactive) | GI50 [7]: > 100 µM (inactive) | GI50 [8]: 77.1 µM (inactive) | GI50 [9]: > 100 µM (inactive) | GI50 [10]: 82.4 µM (inactive) | GI50 [12]: > 100 µM (inactive) | GI50 [13]: > 100 µM (inactive) | GI50 [14]: > 100 µM (inactive) | GI50 [15]: > 100 µM (inactive) | GI50 [17]: > 100 µM (inactive) | GI50 [20]: > 100 µM (inactive) | GI50 [22]: > 100 µM (inactive) | GI50 [23]: > 100 µM (inactive) | GI50 [24]: > 100 µM (inactive) | GI50 [25]: > 100 µM (inactive) | GI50 [26]: > 100 µM (inactive) | GI50 [27]: > 100 µM | GI50 [28]: > 100 µM (inactive) | GI50 [29]: > 100 µM (inactive) | GI50 [30]: > 100 µM (inactive) | GI50 [31]: > 100 µM (inactive) | GI50 [32]: > 100 µM (inactive) | GI50 [33]: 67.8 µM (inactive) | GI50 [34]: > 100 µM (inactive) | GI50 [36]: > 100 µM (inactive) | GI50 [37]: > 100 µM (inactive) | GI50 [38]: > 100 µM (inactive) | GI50 [39]: > 100 µM (inactive) | GI50 [41]: > 100 µM (inactive) | GI50 [42]: 55.6 µM (inactive) | GI50 [43]: > 100 µM (inactive) | GI50 [44]: > 100 µM (inactive) | GI50 [46]: > 100 µM (inactive) | GI50 [47]: > 100 µM (inactive) | GI50 [48]: > 100 µM (inactive) | GI50 [49]: > 100 µM (inactive) | GI50 [50]: > 100 µM (inactive) | GI50 [51]: > 100 µM (inactive) | GI50 [59]: > 100 µM (inactive) | GI50 [53]: 96.2 µM (inactive) | GI50 [54]: > 100 µM (inactive) | GI50 [56]: > 100 µM (inactive) | GI50 [58]: > 100 µM (inactive)
